Assay results from patent US20250171431A1, “HETEROCYCLIC INHIBITORS OF IGF-1R FOR TREATMENT OF DISEASE” (HORIZON THERAPEUTICS IRELAND DAC, priority 2023, published 2025).

target: IGF-1R (Homo sapiens (Human), UniProt P08069); experiment: Example B-1: IGF-1R Assay (PC3 cells, IGF1 stimulation, AlphaLISA); type: cell-based; conditions: 200 ng/mL IGF1 stimulation, read-out: Biological Activity against IGF-1R IC50
Summary of the method: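 Readout is AlphaLISA signal from lysed PC3 cells, expressed as % inhibition versus vehicle and EC80 controls and banded by IC50. Before lysis, the cells were starved of serum for 2 h, exposed to 3× serially diluted compound for 2 h, and stimulated for 30 min with 200 ng/mL IGF1 (final).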

Sequence of IGF-1R (P08069 31-1367): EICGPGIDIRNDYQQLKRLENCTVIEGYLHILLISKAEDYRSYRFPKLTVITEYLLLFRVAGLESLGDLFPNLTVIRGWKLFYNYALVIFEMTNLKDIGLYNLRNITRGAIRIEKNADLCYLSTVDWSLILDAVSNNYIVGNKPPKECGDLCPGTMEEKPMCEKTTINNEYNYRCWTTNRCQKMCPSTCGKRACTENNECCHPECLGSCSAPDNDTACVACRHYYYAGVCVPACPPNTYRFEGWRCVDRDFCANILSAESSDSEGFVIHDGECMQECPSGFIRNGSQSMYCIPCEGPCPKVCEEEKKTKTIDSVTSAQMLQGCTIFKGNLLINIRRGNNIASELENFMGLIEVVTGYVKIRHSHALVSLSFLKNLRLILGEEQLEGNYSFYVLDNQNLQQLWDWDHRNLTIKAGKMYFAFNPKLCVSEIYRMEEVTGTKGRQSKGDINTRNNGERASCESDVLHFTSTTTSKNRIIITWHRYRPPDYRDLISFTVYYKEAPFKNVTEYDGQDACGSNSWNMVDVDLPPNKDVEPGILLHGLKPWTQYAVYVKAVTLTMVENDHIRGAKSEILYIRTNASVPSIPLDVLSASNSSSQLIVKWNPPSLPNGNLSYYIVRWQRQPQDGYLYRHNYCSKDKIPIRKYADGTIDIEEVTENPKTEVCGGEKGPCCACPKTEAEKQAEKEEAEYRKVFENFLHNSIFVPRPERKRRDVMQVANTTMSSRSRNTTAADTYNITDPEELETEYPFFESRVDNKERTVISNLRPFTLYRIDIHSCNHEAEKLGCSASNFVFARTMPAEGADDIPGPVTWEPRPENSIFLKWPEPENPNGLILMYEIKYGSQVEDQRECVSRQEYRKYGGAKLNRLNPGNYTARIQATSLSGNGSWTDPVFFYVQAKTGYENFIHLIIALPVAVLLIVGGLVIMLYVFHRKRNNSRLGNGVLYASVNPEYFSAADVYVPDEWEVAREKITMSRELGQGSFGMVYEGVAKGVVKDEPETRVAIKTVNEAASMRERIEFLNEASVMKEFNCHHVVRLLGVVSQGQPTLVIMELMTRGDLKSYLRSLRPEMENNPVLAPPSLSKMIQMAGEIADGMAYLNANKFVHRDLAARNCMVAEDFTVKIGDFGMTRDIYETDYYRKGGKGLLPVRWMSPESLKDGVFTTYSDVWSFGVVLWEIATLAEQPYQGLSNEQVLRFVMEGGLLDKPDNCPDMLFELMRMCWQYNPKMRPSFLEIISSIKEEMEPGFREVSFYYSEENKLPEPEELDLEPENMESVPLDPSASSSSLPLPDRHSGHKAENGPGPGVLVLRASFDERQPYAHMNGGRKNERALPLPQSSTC

SMILES	IC50 [µM]
COc1cc(Nc2nccc(Nc3cnc4c(c3)CCCCC4)n2)ccc1OCCCN1CCCCC1 [Compound 57, 4-{8-azabicyclo[5.4.0]undeca-1(11),7,9-trien-10-ylamino}-2-[3-methoxy-4-(3-piperidinopropoxy)phenylamino] pyrimidine]	≤ 0.5
COc1cc(Nc2nccc(Nc3cnc4c(Cl)cncc4c3)n2)ccc1O[C@H]1C[C@@H](N(C)C)C1 [Compound 84, 4-(8-chloro-1,6-diaza-3-naphthylamino)-2-{3-methoxy-4-[(1s,3s)-3-(dimethylamino)cyclobutoxy]phenylamino}pyrimidine]	0.5 to 2
COCCN(C)[C@H]1C[C@@H](Oc2ccc(Nc3nccc(Nc4cnc5cc(F)c(F)cc5c4)n3)cc2OC)C1 [Compound 47, 4-(6,7-difluoro-3-quinolylamino)-2-(3-methoxy-4-{(1s,3s)-3-[(2-methoxyethyl)-N-methylamino]cyclobutoxy}phenylamino)pyrimidine]	≤ 0.5
COc1cc(Nc2nc(N)cc(Nc3cnc4cc(F)c(F)cc4c3)n2)cnc1O[C@H]1C[C@@H](N(C)C)C1 [Compound 252, 6-amino-4-(6,7-difluoro-3-quinolylamino)-2-{5-methoxy-6-[(1s,3s)-3-(dimethylamino)cyclobutoxy]-3-pyridylamino}pyrimidine]	2 to 10
CN(C)[C@H]1C[C@H](Oc2ccc(Nc3nccc(Nc4cnc5c(c4)SCCC5)n3)cc2)C1 [Compound 318, 4-(3,4-dihydro-2H-1-thia-5-azanaphth-7-ylamino)-2-{p-[(1r,3r)-3-(dimethylamino)cyclobutoxy]phenylamino}pyrimidine]	≤ 0.5
COc1cc(Nc2nccc(Nc3cc(Cl)c4ncccc4c3)n2)ccc1OCCCN1CCCCC1 [Compound 457, 4-(8-chloro-6-quinolylamino)-2-[3-methoxy-4-(3-piperidinopropoxy)phenylamino] pyrimidine]	≤ 0.5
COc1cc(Nc2nccc(Nc3ccc4c(c3)CCCN4C)n2)ccc1OCCCN1CCCCC1 [Compound 451, 2-[3-methoxy-4-(3-piperidinopropoxy)phenylamino]-4-(1-methyl-1,2,3,4-tetrahydro-6-quinolylamino) pyrimidine]	≤ 0.5
COc1cc(Nc2nccc(Nc3cc4cccc(F)c4[nH]c3=O)n2)cnc1N1CCNC(C(C)(C)O)C1 (stereo not drawn) [Compound 238, 8-fluoro-3-(2-{6-[3-(1-hydroxy-1-methylethyl)-1-piperazinyl]-5-methoxy-3-pyridylamino}-4-pyrimidinylamino)-1,2-dihydro-2-quinolinone]	≤ 0.5
COc1cc(Nc2nccc(Nc3cnc4c(cnn4C)c3)n2)ccc1O[C@H]1C[C@@H](N(C)C)C1 [Compound 280, 2-{3-methoxy-4-[(1s,3s)-3-(dimethylamino)cyclobutoxy]phenylamino}-4-(1-methyl-1H-1,2,7-triazainden-5-ylamino)pyrimidine]	≤ 0.5
COc1cc(Nc2nccc(Nc3ccc4c(c3)CCCC4=O)n2)ccc1OCCCN1CCCCC1 [Compound 449, 6-{2-[3-methoxy-4-(3-piperidinopropoxy)phenylamino]-4-pyrimidinylamino}-3,4-dihydro-1(2H)-naphthalenone]	≤ 0.5
COc1cc(Nc2nccc(Nc3cnc4ccc(C(F)F)cc4c3)n2)cnc1O[C@H]1C[C@@H](N(C)C)C1 [Compound 163, 4-[6-(difluoromethyl)-3-quinolylamino]-2-{5-methoxy-6-[(1s,3s)-3-(dimethylamino)cyclobutoxy]-3-pyridylamino}pyrimidine]	≤ 0.5
COc1cc(Nc2nccc(Nc3cnc4ccccc4c3)c2F)ccc1O[C@H]1C[C@@H](N(C)C)C1 [Compound 264, 3-fluoro-2-{3-methoxy-4-[(1s,3s)-3-(dimethylamino)cyclobutoxy]phenylamino}-4-(3-quinolylamino)pyridine]	> 10
COc1cc(Nc2nccc(Nc3cnc4ccccc4c3)n2)ccc1O[C@H]1C[C@H](N(C)C)C1 [Compound 369, 2-{3-methoxy-4-[(1r,3r)-3-(dimethylamino)cyclobutoxy]phenylamino}-4-(3-quinolylamino)pyrimidine]	≤ 0.5
COc1cc(Nc2cc(Nc3cnc4ccccc4c3)ccn2)ccc1O[C@H]1C[C@@H](N(C)C)C1 [Compound 265, 2-{3-methoxy-4-[(1s,3s)-3-(dimethylamino)cyclobutoxy]phenylamino}-4-(3-quinolylamino)pyridine]	2 to 10
COc1cc(Nc2nccc(Nc3ccc4scnc4c3)n2)ccc1OCCCN1CCCCC1 [Compound 443, 4-(1,3-benzothiazol-5-ylamino)-2-[3-methoxy-4-(3-piperidinopropoxy)phenylamino] pyrimidine]	≤ 0.5
COc1cc(Nc2nccc(Nc3cc4cccc(F)c4[nH]c3=O)n2)cnc1O[C@H]1C[C@@H](N(C)C)C1 [Compound 246, 8-fluoro-3-(2-{5-methoxy-6-[(1s,3s)-3-(dimethylamino)cyclobutoxy]-3-pyridylamino}-4-pyrimidinylamino)-1,2-dihydro-2-quinolinone]	≤ 0.5
CN(C)[C@H]1C[C@H](Oc2ccc(Nc3nccc(Nc4cnc5ccc(Br)cc5c4)n3)cc2)C1 [Compound 320, 4-(6-bromo-3-quinolylamino)-2-{p-[(1r,3r)-3-(dimethylamino)cyclobutoxy]phenylamino}pyrimidine]	≤ 0.5
COc1cc(N2CCN(C3COC3)CC2)ncc1Nc1ncc(F)c(Nc2cc3ccccc3nc2C(N)=O)n1 [Compound 495, 3-(5-fluoro-2-{4-methoxy-6-[4-(3-oxetanyl)-1-piperazinyl]-3-pyridylamino}-4-pyrimidinylamino)-2-quinolinecarboxamide]	≤ 0.5
COc1cc(Nc2nccc(Nc3cnc4ccc(C(F)(F)F)cc4c3)n2)ccc1O[C@H]1C[C@H](N(C)C)C1 [Compound 334, 2-{3-methoxy-4-[(1r,3r)-3-(dimethylamino)cyclobutoxy]phenylamino}-4-[6-(trifluoromethyl)-3-quinolylamino]pyrimidine]	≤ 0.5
COc1cc(Nc2nccc(Nc3cnc4cc(N)ccc4c3)n2)ccc1O[C@H]1C[C@@H](N(C)C)C1 [Compound 12, 4-(7-amino-3-quinolylamino)-2-{3-methoxy-4-[(1s,3s)-3-(dimethylamino)cyclobutoxy]phenylamino}pyrimidine]	≤ 0.5
COc1cc(Nc2nccc(Nc3cnc4ccc(Cl)cc4c3)n2)cnc1N1CCN(C)C(C)(C)C1 [Compound 480, 4-(6-chloro-3-quinolylamino)-2-[6-(3,3-dimethyl-4-methyl-1-piperazinyl)-5-methoxy-3-pyridylamino] pyrimidine]	≤ 0.5
COc1cc(N2CCN(C3COC3)CC2)ncc1Nc1nccc(Nc2cc3cccc(F)c3[nH]c2=O)n1 [Compound 225, 8-fluoro-3-(2-{4-methoxy-6-[4-(3-oxetanyl)-1-piperazinyl]-3-pyridylamino}-4-pyrimidinylamino)-1,2-dihydro-2-quinolinone]	≤ 0.5
COc1cc(Nc2nccc(Nc3cnc4c(c3)OCCC4)n2)ccc1OCCCN1CCCCC1 [Compound 383, 4-(3,4-dihydro-2H-1-oxa-5-azanaphth-7-ylamino)-2-[3-methoxy-4-(3-piperidinopropoxy)phenylamino]pyrimidine]	≤ 0.5

Continued, values first:

IC50 [µM]	SMILES
≤ 0.5	c1cc(Nc2cnc3c(c2)C2CCC3CC2)nc(Nc2ccc(OCCCN3CCOCC3)cc2)n1 [Compound 373, 4-(3-azatricyclo[6.2.2.0^2,7]dodeca-2,4,6-trien-5-ylamino)-2-[p-(3-morpholinopropoxy)phenylamino] pyrimidine]
≤ 0.5	COc1cc(N2CCN(C)CC2)ccc1Nc1nccc(Nc2cnc3cc(Cl)ccc3c2)n1 [Compound 464, 4-(7-chloro-3-quinolylamino)-2-[2-methoxy-4-(4-methyl-1-piperazinyl)phenylamino] pyrimidine]
≤ 0.5	COc1cc(Nc2nccc(Nc3cnc4cccc(F)c4c3)n2)ccc1OCCCN1CCCCC1 [Compound 423, 4-(5-fluoro-3-quinolylamino)-2-[3-methoxy-4-(3-piperidinopropoxy)phenylamino]pyrimidine]
≤ 0.5	c1ccc2ncc(Nc3ccnc(Nc4ccc(O[C@H]5CC[C@@H](N6CCOCC6)CC5)cc4)n3)cc2c1 [Compound 39, 4-(3-quinolylamino)-2-{p-[(1s, 4s)-4-morpholinocyclohexyloxy]phenylamino}pyrimidine]
≤ 0.5	CC1(C)COc2cc(Nc3ccnc(Nc4ccc(OCCCN5CCOCC5)cc4)n3)cnc2O1 [Compound 65, 4-(3,3-dimethyl-2,3-dihydro-1,4-dioxa-5-aza-7-naphthylamino)-2-[p-(3-morpholinopropoxy)phenylamino]pyrimidine]
≤ 0.5	c1cc(Nc2cnc3c(c2)CC2(CC3)OCCO2)nc(Nc2ccc(OCCCN3CCOCC3)cc2)n1 [Compound 68, 4-(7′,8′-dihydro-5′H-spiro[1,3-dioxolane-2,6′-quinolin]-3′-ylamino)-2-[p-(3-morpholinopropoxy)phenylamino] pyrimidine]
≤ 0.5	COc1ccc2ccc(Nc3ccnc(Nc4ccc(OCCCN5CCCCC5)c(OC)c4)n3)cc2c1 [Compound 452, 4-(7-methoxy-2-naphthylamino)-2-[3-methoxy-4-(3-piperidinopropoxy)phenylamino] pyrimidine]
≤ 0.5	COc1cc(Nc2nccc(Nc3cnc4ccc(F)cc4c3)n2)ccc1OCCCN1CCCCC1 [Compound 427, 4-(6-fluoro-3-quinolylamino)-2-[3-methoxy-4-(3-piperidinopropoxy)phenylamino]pyrimidine]
≤ 0.5	COc1cc(Nc2nccc(Nc3cnc4cc(F)c(F)cc4c3)n2)cnc1N1CCOCC1 [Compound 469, 4-(6,7-difluoro-3-quinolylamino)-2-(5-methoxy-6-morpholino-3-pyridylamino)pyrimidine]
0.5 to 2	COc1cc(Nc2nccc(Nc3ccc4cccnc4c3)n2)ccc1OCCCN1CCCCC1 [Compound 433, 2-[3-methoxy-4-(3-piperidinopropoxy)phenylamino]-4-(7-quinolylamino) pyrimidine]
